The nature of test [1]: Inhibition of Phoshoinositol 3 kinase from MCF-7 breast cancer cells. It counts as cell-based, Homo sapiens. Conditions: mcf7.
Test [2] deals with Heat shock protein HSP 90-alpha (Homo sapiens, UniProt P07900). Briefly: Competitive binding towards Heat shock protein HSP 90-alpha.
The target of test [3] is T1, DNA-dependent protein kinase catalytic subunit (Homo sapiens, UniProt P78527). Briefly: Inhibition of DNA dependent protein kinase activity without hsp90 alpha protein.
Test [4] has as its target T1, DNA-dependent protein kinase catalytic subunit. Briefly: Inhibition of DNA dependent protein kinase with hsp90 alpha protein.
A short description of test [5]: Inhibition of Phoshoinositol 3 kinase. Also on record: species or system Homo sapiens.

Drawing on ChEMBL document CHEMBL1134011, “LY294002-geldanamycin heterodimers as selective inhibitors of the PI3K and PI3K-related family” (Bioorg Med Chem Lett, 2001), this text covers IC50 and EC50 for 13 molecules.

The structures appear in SMILES notation.

T1 sequence (P78527 whole entry): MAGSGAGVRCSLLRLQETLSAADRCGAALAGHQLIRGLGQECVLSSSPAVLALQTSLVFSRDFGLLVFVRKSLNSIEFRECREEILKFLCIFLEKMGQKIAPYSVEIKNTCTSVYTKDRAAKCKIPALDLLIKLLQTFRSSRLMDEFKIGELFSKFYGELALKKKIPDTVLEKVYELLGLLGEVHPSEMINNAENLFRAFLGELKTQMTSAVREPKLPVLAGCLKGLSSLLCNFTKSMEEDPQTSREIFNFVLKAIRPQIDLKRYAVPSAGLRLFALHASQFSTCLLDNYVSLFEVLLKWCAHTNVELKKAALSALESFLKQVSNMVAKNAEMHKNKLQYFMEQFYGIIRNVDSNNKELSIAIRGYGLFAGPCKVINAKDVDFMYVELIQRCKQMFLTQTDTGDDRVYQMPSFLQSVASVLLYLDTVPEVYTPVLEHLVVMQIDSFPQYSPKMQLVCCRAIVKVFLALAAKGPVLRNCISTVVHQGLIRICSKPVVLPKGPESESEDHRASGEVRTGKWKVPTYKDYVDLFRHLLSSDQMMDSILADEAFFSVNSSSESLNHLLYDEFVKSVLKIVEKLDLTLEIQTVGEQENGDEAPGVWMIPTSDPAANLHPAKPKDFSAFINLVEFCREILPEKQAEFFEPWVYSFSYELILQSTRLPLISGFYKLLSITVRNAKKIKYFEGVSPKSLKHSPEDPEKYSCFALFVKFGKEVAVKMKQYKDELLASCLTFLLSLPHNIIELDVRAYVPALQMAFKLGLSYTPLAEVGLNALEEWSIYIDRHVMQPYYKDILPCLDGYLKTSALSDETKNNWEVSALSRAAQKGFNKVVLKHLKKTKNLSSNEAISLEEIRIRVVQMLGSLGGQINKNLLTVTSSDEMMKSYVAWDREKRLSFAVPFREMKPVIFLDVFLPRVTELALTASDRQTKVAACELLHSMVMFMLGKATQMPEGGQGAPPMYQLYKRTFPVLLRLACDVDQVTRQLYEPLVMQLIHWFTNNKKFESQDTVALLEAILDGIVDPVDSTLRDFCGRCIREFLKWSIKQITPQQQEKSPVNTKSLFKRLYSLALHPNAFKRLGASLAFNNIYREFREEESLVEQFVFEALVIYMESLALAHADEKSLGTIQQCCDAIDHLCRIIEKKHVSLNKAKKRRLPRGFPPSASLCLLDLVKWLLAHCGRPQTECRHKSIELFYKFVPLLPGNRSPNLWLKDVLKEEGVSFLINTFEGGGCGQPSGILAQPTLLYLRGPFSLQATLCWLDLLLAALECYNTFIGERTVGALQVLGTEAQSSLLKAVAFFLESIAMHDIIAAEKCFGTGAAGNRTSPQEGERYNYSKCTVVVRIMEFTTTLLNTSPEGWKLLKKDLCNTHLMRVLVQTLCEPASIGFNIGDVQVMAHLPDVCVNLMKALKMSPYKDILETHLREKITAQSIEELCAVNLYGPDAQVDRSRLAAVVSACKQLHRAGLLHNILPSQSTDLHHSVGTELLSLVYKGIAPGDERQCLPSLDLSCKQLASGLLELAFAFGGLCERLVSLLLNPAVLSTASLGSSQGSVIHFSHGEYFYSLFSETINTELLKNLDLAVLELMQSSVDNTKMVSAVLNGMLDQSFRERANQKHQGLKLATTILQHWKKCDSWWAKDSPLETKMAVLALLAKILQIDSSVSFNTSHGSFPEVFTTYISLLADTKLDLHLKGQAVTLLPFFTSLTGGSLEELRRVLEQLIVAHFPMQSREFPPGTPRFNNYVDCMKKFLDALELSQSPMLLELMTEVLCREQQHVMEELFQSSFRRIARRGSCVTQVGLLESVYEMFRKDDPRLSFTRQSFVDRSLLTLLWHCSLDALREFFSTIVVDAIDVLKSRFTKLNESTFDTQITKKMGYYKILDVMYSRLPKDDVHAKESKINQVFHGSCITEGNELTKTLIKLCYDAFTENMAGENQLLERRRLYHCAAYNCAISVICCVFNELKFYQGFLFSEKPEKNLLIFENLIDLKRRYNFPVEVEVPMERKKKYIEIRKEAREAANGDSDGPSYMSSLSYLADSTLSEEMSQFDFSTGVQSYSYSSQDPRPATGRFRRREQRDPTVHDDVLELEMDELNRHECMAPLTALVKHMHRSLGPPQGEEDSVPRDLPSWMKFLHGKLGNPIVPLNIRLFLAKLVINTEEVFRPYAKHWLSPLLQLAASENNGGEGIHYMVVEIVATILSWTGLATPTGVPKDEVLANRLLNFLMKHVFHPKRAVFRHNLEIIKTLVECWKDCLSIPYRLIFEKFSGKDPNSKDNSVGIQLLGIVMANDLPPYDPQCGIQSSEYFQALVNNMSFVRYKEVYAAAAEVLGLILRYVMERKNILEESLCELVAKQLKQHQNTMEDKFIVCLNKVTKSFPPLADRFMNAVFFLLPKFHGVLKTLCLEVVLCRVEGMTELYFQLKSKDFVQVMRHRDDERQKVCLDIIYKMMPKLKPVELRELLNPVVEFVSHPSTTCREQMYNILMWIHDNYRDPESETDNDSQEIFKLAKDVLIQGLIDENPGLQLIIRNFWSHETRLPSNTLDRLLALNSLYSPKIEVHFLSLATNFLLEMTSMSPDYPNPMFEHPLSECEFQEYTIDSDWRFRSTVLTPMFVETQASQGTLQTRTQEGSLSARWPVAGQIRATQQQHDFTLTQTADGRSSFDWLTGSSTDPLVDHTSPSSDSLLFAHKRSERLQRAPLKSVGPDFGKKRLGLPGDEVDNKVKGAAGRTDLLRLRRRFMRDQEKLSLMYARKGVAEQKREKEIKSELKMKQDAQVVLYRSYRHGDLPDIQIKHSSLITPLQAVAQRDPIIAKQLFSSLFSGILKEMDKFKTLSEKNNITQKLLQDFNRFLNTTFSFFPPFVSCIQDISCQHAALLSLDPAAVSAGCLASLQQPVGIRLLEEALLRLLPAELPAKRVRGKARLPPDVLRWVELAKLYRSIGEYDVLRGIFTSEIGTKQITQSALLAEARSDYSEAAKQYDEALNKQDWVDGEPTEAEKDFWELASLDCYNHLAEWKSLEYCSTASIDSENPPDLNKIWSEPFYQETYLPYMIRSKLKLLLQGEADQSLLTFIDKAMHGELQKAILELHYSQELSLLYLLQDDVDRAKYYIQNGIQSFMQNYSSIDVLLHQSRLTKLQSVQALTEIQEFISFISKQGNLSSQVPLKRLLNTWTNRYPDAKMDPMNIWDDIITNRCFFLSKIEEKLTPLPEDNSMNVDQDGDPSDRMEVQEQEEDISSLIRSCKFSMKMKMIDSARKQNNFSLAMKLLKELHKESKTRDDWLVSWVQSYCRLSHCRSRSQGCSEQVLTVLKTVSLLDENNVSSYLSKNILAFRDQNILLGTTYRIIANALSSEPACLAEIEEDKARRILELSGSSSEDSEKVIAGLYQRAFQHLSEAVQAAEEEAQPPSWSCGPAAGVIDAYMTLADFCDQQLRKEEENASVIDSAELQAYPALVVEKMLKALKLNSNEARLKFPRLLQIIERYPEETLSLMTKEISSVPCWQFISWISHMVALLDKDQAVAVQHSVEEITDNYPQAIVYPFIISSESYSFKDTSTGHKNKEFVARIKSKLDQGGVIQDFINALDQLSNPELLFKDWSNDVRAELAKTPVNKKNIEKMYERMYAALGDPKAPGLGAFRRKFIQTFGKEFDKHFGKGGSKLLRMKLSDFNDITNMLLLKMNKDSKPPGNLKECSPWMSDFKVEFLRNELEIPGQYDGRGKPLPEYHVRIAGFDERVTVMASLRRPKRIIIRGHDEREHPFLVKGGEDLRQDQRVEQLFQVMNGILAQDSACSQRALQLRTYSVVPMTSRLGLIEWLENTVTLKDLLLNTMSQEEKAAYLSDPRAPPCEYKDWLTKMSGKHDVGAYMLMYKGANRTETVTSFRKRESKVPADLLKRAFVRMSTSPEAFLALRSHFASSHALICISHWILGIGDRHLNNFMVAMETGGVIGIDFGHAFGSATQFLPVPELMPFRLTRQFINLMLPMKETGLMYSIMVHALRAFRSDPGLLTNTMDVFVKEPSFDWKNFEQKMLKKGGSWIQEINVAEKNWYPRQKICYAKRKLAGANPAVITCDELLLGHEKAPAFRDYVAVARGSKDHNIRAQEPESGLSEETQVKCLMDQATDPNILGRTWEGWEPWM

For orientation: IC50 means the point on the concentration scale where inhibition reaches its midpoint. In general, EC50 refers to the concentration giving half of the maximal effect. For `CO[C@H]1/C=C\C=C(/C)C(=O)NC2=CC(=O)C(NCCCC#Cc3cccc4c(=O)cc(N5CCOCC5)oc34)=C(C[C@@H](C)C[C@H](OC)[C@H](O)[C@@H](C)/C=C(\C)[C@@H]1OC(N)=O)C2=O`, the half-inhibitory concentration (IC50) in test [1] is 13.5 µM; in test [3] it was 13.4 µM. Moreover, the concentration giving a half-maximal response (EC50) in test [2] was above 50 µM.

As to `CO[C@H]1/C=C\C=C(/C)C(=O)NC2=CC(=O)C(NCCOCCOc3ccc4c(=O)cc(N5CCOCC5)oc4c3C)=C(C[C@@H](C)C[C@H](OC)[C@H](O)[C@@H](C)/C=C(\C)[C@@H]1OC(N)=O)C2=O`, the IC50 in test [1] came to 70 µM; in test [3], 12.2 µM. This molecule returned an EC50 in test [2] above 50 µM.

Consider `C=CCNC1=C2C[C@@H](C)C[C@H](OC)[C@H](O)[C@@H](C)/C=C(\C)[C@H](OC(N)=O)[C@@H](OC)/C=C\C=C(/C)C(=O)NC(=CC1=O)C2=O` [TANESPIMYCIN], for which the IC50 was above 500 µM in test [1] and above 40 µM in test [3].

Consider `CO[C@H]1/C=C\C=C(/C)C(=O)NC2=CC(=O)C(NCCCOc3ccc4c(=O)cc(N5CCOCC5)oc4c3)=C(C[C@@H](C)C[C@H](OC)[C@H](O)[C@@H](C)/C=C(\C)[C@@H]1OC(N)=O)C2=O`, for which the IC50 in test [1] was above 500 µM; in test [3], 28 µM. The EC50 in test [2] was 26 µM.

With `CO[C@H]1/C=C\C=C(/C)C(=O)NC2=CC(=O)C(NCCOCCOc3ccc4c(=O)cc(N5CCOCC5)oc4c3)=C(C[C@@H](C)C[C@H](OC)[C@H](O)[C@@H](C)/C=C(\C)[C@@H]1OC(N)=O)C2=O`, the IC50 in test [1] worked out at 85 µM; in test [3] it was 33 µM. Besides, a half-maximal response in test [2] (EC50) required 16 µM.

`CO[C@H]1/C=C\C=C(/C)C(=O)NC2=CC(=O)C(NCCCCCOc3ccc4c(=O)cc(N5CCOCC5)oc4c3)=C(C[C@@H](C)C[C@H](OC)[C@H](O)[C@@H](C)/C=C(\C)[C@@H]1OC(N)=O)C2=O`: the IC50 in test [1] was found to be 310 µM; in test [4], 5 µM; in test [3] it was 10 µM. For the same molecule, in test [2], a half-maximal effect (EC50) was put at 2.5 µM.

With `CO[C@H]1/C=C\C=C(/C)C(=O)NC2=CC(=O)C(NCC#Cc3cccc4c(=O)cc(N5CCOCC5)oc34)=C(C[C@@H](C)C[C@H](OC)[C@H](O)[C@@H](C)/C=C(\C)[C@@H]1OC(N)=O)C2=O`, the half-inhibitory concentration (IC50) in test [1] and in test [3] was 3 µM throughout. Besides, in test [2], the EC50 was determined as 7 µM.

As to `O=c1cc(N2CCOCC2)oc2ccccc12`, the results for the IC50 in test [1] and in test [3] were 14 µM and 4.3 µM, respectively. The molecule also displayed an EC50 in test [2] above 50 µM.

`CO[C@H]1/C=C\C=C(/C)C(=O)NC2=CC(=O)C(NCCCCCCOc3ccc4c(=O)cc(N5CCOCC5)oc4c3)=C(C[C@@H](C)C[C@H](OC)[C@H](O)[C@@H](C)/C=C(\C)[C@@H]1OC(N)=O)C2=O`: the IC50 is above 500 µM in test [1] and 6.1 µM in test [3]. The molecule further yielded an EC50 in test [2] of 4 µM.

For the molecule `O=c1cc(N2CCOCC2)oc2c1ccc1ccccc12`, in test [5], the 50% inhibitory concentration (IC50) was 6 µM.

Regarding `CO[C@H]1/C=C\C=C(/C)C(=O)NC2=CC(=O)C(NCCCCOc3ccc4c(=O)cc(N5CCOCC5)oc4c3)=C(C[C@@H](C)C[C@H](OC)[C@H](O)[C@@H](C)/C=C(\C)[C@@H]1OC(N)=O)C2=O`, the half-inhibitory concentration (IC50) in test [1] came out at 200 µM; in test [3] it was 13.9 µM. This molecule also showed a 50% effective concentration (EC50) in test [2] of 10 µM.

With `CO[C@H]1/C=C\C=C(/C)C(=O)NC2=CC(=O)C(NCCCCCCCOc3ccc4c(=O)cc(N5CCOCC5)oc4c3C)=C(C[C@@H](C)C[C@H](OC)[C@H](O)[C@@H](C)/C=C(\C)[C@@H]1OC(N)=O)C2=O`, the IC50 in test [1] was 5 µM; in test [3], 3.7 µM. The molecule further returned an EC50 in test [2] of 46 µM.

For `CO[C@H]1/C=C\C=C(/C)C(=O)NC2=CC(=O)C(NCCCCCCCCOc3ccc4c(=O)cc(N5CCOCC5)oc4c3C)=C(C[C@@H](C)C[C@H](OC)[C@H](O)[C@@H](C)/C=C(\C)[C@@H]1OC(N)=O)C2=O`, the IC50 in test [1] was found to be 28 µM; in test [3], 1.75 µM. The concentration giving a half-maximal response (EC50) in test [2] amounted to 28 µM.
